≈ marks a conversion by molar mass, not a printed value. Entries after “also recorded” stand apart in the source; their conditions may differ.
Key:
[1] = Mouse liver microsomal stability assay; settings: mouse liver microsomes; for metabolic stability category: 30 minutes, 1 μM; for remaining at 0.5 h, 1 µM: mouse
[2] = biological target: human CK1α (Homo sapiens, UniProt P48729); test: HsCK1α kinase inhibition assay; assay type: biochemical
[3] = test system: C. albicans (CaSS1); test: C. albicans growth inhibition, two-fold dose-response assay; settings: for MIC80: Candida albicans, 48 h, read-out: C. albicans MIC80; for whole-cell antifungal activity against C. albicans / concentration at which bioactivity was retained: 5% CO2
[4] = test system: J774A.1 cells infected with C. albicans (SC5314); test: Macrophage killing assay; settings: for macrophage viability in co-culture: 30 µM; for IC50: Mus musculus, J774.A1, 24 h, read-out: IC50 of rescuing macrophage viability
[5] = test system: echinocandin-resistant C. albicans strain (DPL15; FKS1^T1922C/FKS1^T1922C); test: Caspofungin potentiation dose-response assay in echinocandin-resistant strain; settings: sub-inhibitory caspofungin (3 µg/mL); YPD, 30 °C, 48 h
[6] = test system: HepG2-fLuc cells; test: HepG2 / C. albicans co-culture: HepG2 survival by luminescence
[7] = test system: C. albicans (FKS1^T1922C/FKS1^T1922C Eno1-GFP); test: HepG2 / C. albicans co-culture: fungal burden by GFP fluorescence
[8] = test system: C. albicans (TEF1p-GFP) in J774A.1 cells; test: Visualization of C. albicans filamentation in macrophages; settings: 4 h incubation; 0.94, 7.5 or 30 µM
[9] = test system: C. albicans Yck2 kinase domain; test: biochemical; assay type: biochemical, Candida albicans; settings: Ratio of HsCK1α IC50 / CaYck2 IC50
[10] = biological target: T1, C. albicans Yck2 kinase domain (Candida albicans, UniProt A0A1D8PKB4); test: biochemical; assay type: biochemical; settings: for CaYck2 IC50: two-fold dose-response up to 1 µM, ATP 20 μM (Km)
T1 sequence (A0A1D8PKB4 37-345): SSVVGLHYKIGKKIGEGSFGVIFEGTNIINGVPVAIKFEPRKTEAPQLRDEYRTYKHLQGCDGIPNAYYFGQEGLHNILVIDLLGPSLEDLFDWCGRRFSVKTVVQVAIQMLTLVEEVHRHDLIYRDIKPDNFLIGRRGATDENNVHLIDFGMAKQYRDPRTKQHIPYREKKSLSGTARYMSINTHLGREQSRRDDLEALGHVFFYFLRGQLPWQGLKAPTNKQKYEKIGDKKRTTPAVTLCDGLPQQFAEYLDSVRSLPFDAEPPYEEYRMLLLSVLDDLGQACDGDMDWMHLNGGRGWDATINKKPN

[11] = Plasma, kidney and brain exposure in mice; settings: 50 mg/kg oral
[12] = Tolerability on repeated oral dosing in uninfected mice; settings: 25 mg/kg once daily over 3 days
[13] = Plasma pharmacokinetic profiling in mice; settings: female, CD1, mouse, in vivo, po, 25 mg/kg, maximal plasma concentration (Cmax), 25 mg/kg p.o.
[14] = test system: C. albicans (TEF1p-GFP) in co-culture with J774A.1 cells; test: C. albicans growth in co-culture with macrophages; settings: 16 h post-infection

human CK1α, sequence (P48729 whole entry): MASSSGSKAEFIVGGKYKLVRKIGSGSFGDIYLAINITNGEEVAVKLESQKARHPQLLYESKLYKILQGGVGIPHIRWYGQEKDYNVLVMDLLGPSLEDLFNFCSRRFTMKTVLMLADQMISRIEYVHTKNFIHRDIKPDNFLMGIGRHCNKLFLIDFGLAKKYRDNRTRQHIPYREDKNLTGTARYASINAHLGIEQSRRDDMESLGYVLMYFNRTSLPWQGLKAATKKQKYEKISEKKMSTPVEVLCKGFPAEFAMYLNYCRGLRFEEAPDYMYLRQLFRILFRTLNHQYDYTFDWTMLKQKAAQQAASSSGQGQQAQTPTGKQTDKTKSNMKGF

Row | Compound | remaining at 0.5 h, 1 µM [1] | IC50 [2] | MIC80 [3] | whole-cell antifungal activity against C. albicans ([3]; RPMI, 37 °C) | Fungal selectivity (fold) [9] | IC50 [10] | other results
1 | Cc1ccn2nc(-c3ccc(F)cc3)c(-c3ccncc3)c2c1 [Compound 2f] | 1% | 2000 nM | – | – | – | – | metabolic stability category [1]: unstable (compound concentration remaining in the microsomal suspension after incubation for 30 minutes was ≤ 50% of the starting concentration (1 μM))
2 | Oc1ccc2c(-c3ccncc3)c(-c3ccc(F)cc3)nn2c1 [Compound 2e] | – | – | > 100 µM | no measurable whole-cell activity | – | – | –
3 | Fc1ccc(-c2nc3cc(F)ccn3c2-c2ccncc2)cc1 [Compound 1f] | 75% | 1400 nM | 50 µM (≈ 15.4 µg/mL) | robust anti-C. albicans bioactivity | – | – | macrophage viability in co-culture [4]: restoring full viability; reduction in MIC80 upon addition of caspofungin [5]: ≥ 4 fold; rescue of HepG2 viability ([6]; at or above 6.25 µM): partially rescued HepG2 viability; C. albicans in co-culture relative to compound-free controls ([7]; at or above 6.25 µM): ~ 50%; filamentation of C. albicans [8]: inhibited filamentation
4 | CCCc1ccn2c(-c3ccncc3)c(-c3ccc(F)cc3)nc2c1 [Compound 1i] | 0% | – | > 100 µM | – | – | – | –
5 | Fc1ccc(-c2nn3cccc(F)c3c2-c2ccncc2)cc1 [Compound 2m] | – | – | 25 µM (≈ 7.68 µg/mL) | – | 27 fold | – | –
6 | Fc1ccc(-c2nc3cc(C4CC4)ccn3c2-c2ccncc2)cc1 [Compound 1h] | 0% | – | 50 to 100 µM (≈ 16.5 to 32.9 µg/mL) | – | – | 180 nM | concentration at which bioactivity was retained ([3]; RPMI, 37 °C): 50 µM
7 | N#Cc1ccc2c(-c3ccncc3)c(-c3ccc(F)cc3)nn2c1 [Compound 2a] | – | – | 12.5 µM (≈ 3.93 µg/mL) | robust anti-C. albicans bioactivity | – | – | brain penetration [11]: accumulated in brain tissue at levels higher than the systemic circulation; changes in animal weight or behavior [12]: no changes in animal weight or behavior were observed; macrophage viability in co-culture [4]: restoring full viability; IC50 [4]: 2.17 µM; Cmax [13]: ~15 µM; reduction in MIC80 upon addition of caspofungin [5]: ≥ 32 fold; C. albicans MIC80 ([3]; wild-type C. albicans, RPMI, 37 °C, 5% CO2, 48 h): 12.5 µM; reduction of C. albicans growth in co-culture [14]: most effective; filamentation of C. albicans [8]: inhibited filamentation
8 | CCc1ccn2c(-c3ccncc3)c(-c3ccc(F)cc3)nc2c1 [Compound 1d] | 0% | 1700 nM | 50 µM (≈ 15.9 µg/mL) | – | 3.5 fold | 490 nM | concentration at which bioactivity was retained ([3]; RPMI, 37 °C): 50 µM
9 | COc1ccc2c(-c3ccncc3)c(-c3ccc(F)cc3)nn2c1 [Compound 2d] | – | – | 12.5 µM (≈ 3.99 µg/mL) | robust anti-C. albicans bioactivity | – | – | –
10 | Fc1ccc(-c2nn3cc(C(F)(F)F)ccc3c2-c2ccncc2)cc1 [Compound 2c] | – | – | > 100 µM | little to no whole-cell antifungal activity; also recorded: loss of bioactivity | – | > 1000 nM | CaYck2 IC50 [10]: above the maximum concentration tested
11 | Fc1ccc(-c2nn3ccc(C(F)(F)F)cc3c2-c2ccncc2)cc1 [Compound 2h] | – | > 15000 nM | – | little to no whole-cell antifungal activity | – | > 1000 nM | CaYck2 IC50 [10]: above the maximum concentration tested
12 | Fc1ccc(-c2nn3cc(F)ccc3c2-c2ccncc2)cc1 [Compound 2b] | – | – | 25 µM (≈ 7.68 µg/mL) | robust anti-C. albicans bioactivity | – | – | macrophage viability in co-culture [4]: restoring full viability; reduction in MIC80 upon addition of caspofungin [5]: ≥ 32 fold; concentrations giving mild reduction in HepG2 viability [6]: > 12.5 µM; filamentation of C. albicans [8]: inhibited filamentation
13 | N#Cc1ccn2c(-c3ccncc3)c(-c3ccc(F)cc3)nc2c1 [Compound 1e] | 80% | – | 50 µM (≈ 15.7 µg/mL) | robust anti-C. albicans bioactivity | – | – | brain penetration [11]: accumulated in brain tissue at levels higher than the systemic circulation; changes in animal weight or behavior [12]: no changes in animal weight or behavior were observed; macrophage viability in co-culture [4]: restoring full viability; IC50 [4]: 6.68 µM; Cmax [13]: ~36 µM; reduction in MIC80 upon addition of caspofungin [5]: ≥ 32 fold; concentration clearing the majority of co-cultured C. albicans ([7]; 48 h co-culture with HepG2): 6.25 µM; filamentation of C. albicans [8]: inhibited filamentation
14 | Cc1ccn2c(-c3ccncc3)c(-c3ccc(F)cc3)nc2c1 [Compound 1a] | 0% | 1700 nM | > 100 µM | – | 2.6 fold | 630 nM | metabolic stability category [1]: unstable (compound concentration remaining in the microsomal suspension after incubation for 30 minutes was ≤ 50% of the starting concentration (1 μM))
15 | COc1cccn2nc(-c3ccc(F)cc3)c(-c3ccncc3)c12 [Compound 2n] | 1% | 4900 nM | 25 µM (≈ 7.98 µg/mL) | – | 41 fold | 120 nM | –
16 | CC(C)(C)c1ccn2c(-c3ccncc3)c(-c3ccc(F)cc3)nc2c1 [Compound 1c] | 67% | 6100 nM | > 100 µM | – | 8.6 fold | 700 nM | –
17 | Oc1ccn2nc(-c3ccc(F)cc3)c(-c3ccncc3)c2c1 [Compound 2k] | – | – | > 100 µM | no measurable whole-cell activity | – | – | –
18 | COc1ccn2c(-c3ccncc3)c(-c3ccc(F)cc3)nc2c1 [Compound 1b] | 2% | 1000 nM | 50 µM (≈ 16 µg/mL) | robust anti-C. albicans bioactivity | 3.9 fold | 260 nM | –
19 | Fc1ccc(-c2nc3cc(C(F)(F)F)ccn3c2-c2ccncc2)cc1 [Compound 1g] | 84% | 8400 nM | > 100 µM | loss of bioactivity | 13 fold | 630 nM | –
20 | N#Cc1cccn2nc(-c3ccc(F)cc3)c(-c3ccncc3)c12 [Compound 2o] | – | > 15000 nM | – | little to no whole-cell antifungal activity | – | > 1000 nM | CaYck2 IC50 [10]: above the maximum concentration tested

From article PMC11880385 (Nature Communications, 2025)
